Columns and labels:
[1] = Example 3: 1-MCP headspace release versus wt-% 1-MCP/c/α-CD in UV-cured coating; format: physicochemical; settings: 2.5 cm x 10 cm, 250 mL bottle, 20 μL water, 24 hours
Method: A 20 mL bottle was charged with 9.6 g of UV Coating VP 10169/60 MF-2NE (obtained from Verga GmbH of Aschau am Inn, Germany). Then 0.4 g of 1-MCP/α-cyclodextrin complex (4.7% 1-MCP obtained from AgroFresh of Spring House, Pa.) termed “1-MCP/c/α-CD” was added to the bottle. The bottle was then firmly capped and shaken by hand by hand until the blends appear uniformly dispersed, resulting in a 4.0 wt-% 1-MCP/c/α-CD blend. Three additional blends containing 2.0 wt-%, 1.0 wt-% and 0.5 wt-% of 1-MCP/c/α-CD were prepared in the same manner.
A rubber ink roller was used to deliver a thin (nominally 0.3 μm) coating to a 20 cm by 20 cm polyethylene extrusion coated paper sheet using the technique of Example 2.
Using razor blade, 2.5 cm×10 cm rectangles were cut from the coated portion of each of the sheets. Then the coated rectangular sheets were cured using the procedure of Example 2. Each cured, coated rectangle was placed in a 250 mL serum bottle. The bottle was then sealed with TEFLON® faced silicone septa. Then 20 μL of deionized water was injected into each bottle. […] Headspace was analyzed for 1-MCP 24 hours after the injection of water, using the technique employed in Example 2, and employing the 6-point 1-butene calibration curve as described in Example 2. Table 2 and FIG. 2 give the 24-hour average 1-MCP headspace concentration and standard deviation for each of the coated and cured rectangular sheets.

[2] = Example 9: 1-MCP headspace release from UV-cured ink coated on PET film; format: physicochemical; settings: 4 wt-% 1-MCP/c/α-CD UV ink on PET, 200 μL water
Method: ImTech UVBLK Series 912 cartridges were obtained from ImTech Inc. of Corvallis, Oreg. About 40 g of black ink was removed from the cartridge in which the ink was supplied. The ink was dried overnight in a closed container with 3 A molecular sieves to remove residual water contained in the ink. Then 17.5 g of the dried ink was transferred to a 70 mL roller mill jar filled with 50 g of 3 mm glass beads to which 0.875 g of 1-MCP/c/α-CD was added to the UV ink. The jar was sealed and rotated on a roller mill at 140 rpm for four hours. At the end of four hours of rolling to disperse the 1-MCP/c/α-CD, an additional 4.375 g of dry UV ink was added making a 4 wt-% 1-MCP/c/α-CD containing ink. Then the ink was decanted from the glass beads.
A rubber ink roller was used to coat a discontinuous, thin (nominally 3 μm), but uniform UV ink coating onto a 10 cm by 20 cm section of PET film (120 microns thick, obtained from the 3M Company of St. Paul, Minn.) in the manner described in Example 2. UV ink coated rectangles were passed by hand about 10 cm beneath a medium pressure mercury arc lamp operating at 79 watts per cm for 1.5 seconds exposure to the lamp. The cured sample was allowed to sit on a laboratory bench overnight ink side down.
A paper cutter was used to cut two samples, 20 cm^2 and 81 cm^2, from the cured ink coated PET film sheet. The samples were individually placed in 250 mL serum bottles. The bottles were then sealed with TEFLON® faced silicone septa. Then 200 μL of deionized water was injected into the bottle. […] After the injection of water into the bottle, 1-MCP was measured in the headspace using the analytical technique employed in Example 3.

[3] = Example 11: 1-MCP headspace release from UV coating on polyethylene coated paperboard; format: physicochemical; settings: UV coating with 1-MCP/c/α-CD on PE coated paperboard, 5 cm x 5 cm, 250 mL jar, 200 μL water, average
Method: A 20 mL bottle was charged with 9.6 g of UV curable coating formulation (VP 10169/60 MF-2NE, obtained from Verga GmbH of Aschau am Inn, Germany). Then 0.4 g of 1-MCP/c/α-CD (4.7% 1-MCP, obtained from AgroFresh of […], Pa.) was added to the bottle. The bottle was firmly capped and the components mixed by shaking the bottle by hand until the contents appeared to be uniformly dispersed, providing a UV curable mixture.
A polyethylene coated paperboard was prepared by heat laminating a 30 μm thick polyethylene film to a 20 cm×20 cm section of 600 μm thick solid bleached sulfate (SBS) paperboard (obtained from Graphic Packaging International of_) using a heated vacuum press. A rubber ink roller was used to deliver a thin (nominally 0.3 μm) coating of the UV curable mixture to the laboratory prepared polyethylene coated paperboard, using the technique of Example 2. A paper cutter was used to cut a 20 cm by 10 cm rectangle of the coated portion of the board. The coated rectangle was passed by hand about 10 cm beneath a medium pressure mercury arc lamp operating at 79 watts per cm. After 1.5 seconds exposure to the lamp, the sample was removed. The cured sample was allowed to sit on a laboratory bench overnight, coating side down.
After curing, 5 cm by 5 cm sections were cut from the 20 cm by 10 cm rectangles. Each section was individually placed into a 250 mL jar (tall clear WM SEPTA-JAR™, Fisher Scientific P/N 05-719-452; obtained from Fisher Scientific of Waltham, Mass.) equipped with a TEFLON™ faced septum (Fisher Scientific P/N 14-965-84). Each jar was injected with 200 μL of deionized water. […] Jar headspace was analyzed for 1-MCP at […] time periods (0.17, 0.5, 1, 2, 4 and 7 hours) after the injection of water, using the analytical technique employed in Example 3. The results exemplify that greater amounts of 1-MCP were released into the headspace from the UV coated substrate with increasing time.

[4] = cited from earlier work

**Q.** With `CC1=CC1` [1-MCP, 1-methylcyclopropene] as the molecule, how does the “Headspace concentration of 1-MCP, Ave.” value ([1]; 0.5 wt-% 1-MCP/c/α-CD coating) read?
**A.** 0.09 ppm (v/v)

**Q.** What about the “Headspace concentration of 1-MCP, Ave.” value ([1]; 1 wt-% 1-MCP/c/α-CD coating) of the same molecule?
**A.** 0.20 ppm (v/v)

**Q.** And the “Headspace concentration of 1-MCP, Ave.” value ([1]; 2 wt-% 1-MCP/c/α-CD coating)?
**A.** 0.56 ppm (v/v)

**Q.** And the “Headspace concentration of 1-MCP, Ave.” value ([1]; 4 wt-% 1-MCP/c/α-CD coating)?
**A.** 1.1 ppm (v/v)

**Q.** And the “Headspace concentration of 1-MCP” value ([2]; 20 cm^2, 250 mL bottle, 0.5 hours)?
**A.** <0.01 ppm (v/v)

**Q.** What about the “Headspace concentration of 1-MCP” value ([2]; 20 cm^2, 250 mL bottle, 1 hour) of the same molecule?
**A.** <0.01 ppm (v/v)

**Q.** What about the “Headspace concentration of 1-MCP” value ([2]; 20 cm^2, 250 mL bottle, 2 hours) of the same molecule?
**A.** 0.01 ppm (v/v)

**Q.** What about the “Headspace concentration of 1-MCP” value ([2]; 20 cm^2, 250 mL bottle, 4 hours) of the same molecule?
**A.** 0.04 ppm (v/v)

**Q.** What about the “Headspace concentration of 1-MCP” value ([2]; 20 cm^2, 250 mL bottle, 8 hours) of the same molecule?
**A.** 0.05 ppm (v/v)

**Q.** And the “Headspace concentration of 1-MCP” value ([2]; 20 cm^2, 250 mL bottle, 27 hours)?
**A.** 0.09 ppm (v/v)

**Q.** And the “Headspace concentration of 1-MCP” value ([2]; 20 cm^2, 250 mL bottle, 170 hours)?
**A.** 0.76 ppm (v/v)

**Q.** What about the “Headspace concentration of 1-MCP” value ([2]; 81 cm^2, 250 mL bottle, 0.5 hours) of the same molecule?
**A.** <0.01 ppm (v/v)

**Q.** What about the “Headspace concentration of 1-MCP” value ([2]; 81 cm^2, 250 mL bottle, 1 hour) of the same molecule?
**A.** 0.05 ppm (v/v)

**Q.** What about the “Headspace concentration of 1-MCP” value ([2]; 81 cm^2, 250 mL bottle, 2 hours) of the same molecule?
**A.** 0.18 ppm (v/v)

**Q.** What about the “Headspace concentration of 1-MCP” value ([2]; 81 cm^2, 250 mL bottle, 21 hours) of the same molecule?
**A.** 0.51 ppm (v/v)

**Q.** And the “Headspace concentration of 1-MCP” value ([2]; 81 cm^2, 250 mL bottle, 48 hours)?
**A.** 0.60 ppm (v/v)

**Q.** And the “Headspace concentration of 1-MCP” value ([3]; 0.17 hours)?
**A.** 0.16 ppm (v/v)

**Q.** And the “Headspace concentration of 1-MCP” value ([3]; 0.5 hours)?
**A.** 0.63 ppm (v/v)

**Q.** What about the “Headspace concentration of 1-MCP” value ([3]; 1 hour) of the same molecule?
**A.** 1.6 ppm (v/v)

**Q.** What about the “Headspace concentration of 1-MCP” value ([3]; 2 hours) of the same molecule?
**A.** 3.6 ppm (v/v)

**Q.** What about the “Headspace concentration of 1-MCP” value ([3]; 4 hours) of the same molecule?
**A.** 7.3 ppm (v/v)

**Q.** What about the “Headspace concentration of 1-MCP” value ([3]; 7 hours) of the same molecule?
**A.** 12.5 ppm (v/v)

**Q.** And the 1-MCP remained complexed ([4]; 1-MCP/c/α-CD, end of the experiments)?
**A.** ~83.4%

**Q.** And the “total complexed 1-MCP dissociated at the end of the experiments, average” value ([4]; 1-MCP/c/α-CD, humidity-triggered dissociation)?
**A.** ~17.6%

**Q.** And the “complexed 1-MCP released from 1-MCP/c/α-CD” value ([4]; 100% relative humidity)?
**A.** less than 20%

Source: patent publication US8414989B2, “Cyclodextrin compositions, articles, and methods” (Cellresin Technologies, LLC, priority 2011, dated 2013)
